Laboratory results from patent US20050112573A1, “Method of detecting toxic substance” (priority 2001, published 2005).

Test system: yeast genes (level of expressed mRNA)
Assay: DNA chip analysis of expressed mRNA of yeast genes after 2 h culture with a toxic chemical substance
Assay type: cell-based, Saccharomyces cerevisiae S288C
Method: Yeast (Saccharomyces cerevtisiae S288C (α SUC2mal mel gap2 CUP1)) were cultured at 25° C. on YPD medium (yeast extract 1%, polypepton 2%, glucose 2%). One of toxic chemical substances was added to the cell at logarithmic growth phase, and the cell was further cultured for two hours. Cell was cultured without any chemical substance in the same condition, and was used as control. Concentrations of the chemical substances were defined to inhibit the growth of the yeast but not lead to death.
After the completion of cultivation, the culture was centrifuged to collect the cells. To the cells, sodium acetate buffer (50 mM sodium acetate, 10 mM EDTA, 1% SDS) was added, and the mixture was shaken at 65° C. for five minutes, followed by returning to room temperature, and obtaining the supernatant, which procedure was repeated two times. To the supernatant, ½ amount of a solution of phenol/chloroform was added, and the mixture was centrifuged to give a supernatant, which was added with an equal amount of chloroform, and the mixture was centrifuged to give a supernatant. To the supernatant, an equal amount of isopropanol containing 0.3 M sodium acetate was added, and the mixture was allowed to stand at room temperature for 30 minutes, after which the mixture was centrifuged to give a sediment of the whole RNAs. Seventy % ethanol was added to the sediment, and the mixture was again centrifuged to give a sediment, which was then dried and dissolved in water. mRNA was isolated from the whole RNAs as followings. In view of the fact that a poly A chain is attached to the 3′ terminus of mRNA, a polynucleotide having a poly T structure which was immobilized on the surface of latex beads was used to trap the mRNA, and then the mRNA was washed and eluted with spine column (Oligotex-dT30<Super>mRNA Purification Kit, Takara). Reverse transcription of the mRNA was conducted with a reverse transcriptase (Super Script II Reverse Transcriptase; catalogue No. 18064-014, GibcoBRL) using fluorescence-labeled nucleotides to give cDNAs that were introduced with Cy3-dUTP or Cy5-dUTP during the reverse transcription.
The labeled cDNAs were dissolved in TE buffer (10 mM Tris-HCl/1 mM EDTA, pH8.0), and the solution was dropped on the DNA chip containing the whole genes of yeast (DNA Chip Research Inc. Japan) so that the cDNAs were hybridized on the DNA chip at 65° C. for over 12 hours. The fluoresces intensity of the DNA chip was read with a scanner, and the ratio relative to the fluorescence intensity resulting from the absence of chemical substance was estimated as the following, which is shown in Tables 1 to 9: [formula]
In the Tables, “Intensity” indicated in the rightmost column is a value of the level of expressed mRNA of each gene in control cells as divided by the average level of the expressions of the whole genes.

## CCCCC[C@H](O)CC(=O)CCc1ccc(O)c(OC)c1 [(13), gingerol]
Gene YGR282C
  level of expressed mRNA in the presence of chemical substance/in its absence: 1.2
Gene YGR293C
  The level of expressed mRNA in the presence of chemical substance/absence: YGR293C: 0.7
Gene YHL006C
  The level of expressed mRNA in the presence of chemical substance/absence: YHL006C: 1.1
Gene YHL021C
  The level of expressed mRNA in the presence of chemical substance/absence: YHL021C: 2.6
Gene YHL037C
  The level of expressed mRNA in the presence of chemical substance/absence: YHL037C: 1.0
Gene YHR037W
  level of expressed mRNA in the presence of chemical substance/in its absence: 1.1
Gene YHR083W
  The level of expressed mRNA in the presence of chemical substance/absence: YHR083W: 1.1
Gene YHR092C
  level of expressed mRNA in the presence of chemical substance/in its absence: 0.5
Gene YHR095W
  The level of expressed mRNA in the presence of chemical substance/absence: YHR095W: 0.7
Gene YHR105W
  The level of expressed mRNA in the presence of chemical substance/absence: YHR105W: 1.4
Gene YHR134W
  The level of expressed mRNA in the presence of chemical substance/absence: YHR134W: 1.2
Gene YHR137W
  level of expressed mRNA in the presence of chemical substance/in its absence: 0.6
Gene YHR180W
  The level of expressed mRNA in the presence of chemical substance/absence: YHR180W: 1.3
Gene YHR181W
  The level of expressed mRNA in the presence of chemical substance/absence: YHR181W: 0.7
Gene YHR190W
  level of expressed mRNA in the presence of chemical substance/in its absence: 1.7
Gene YIL033C
  level of expressed mRNA in the presence of chemical substance/in its absence: 2.5
Gene YIL108W
  The level of expressed mRNA in the presence of chemical substance/absence: YIL108W: 1.3
Gene YIL127C
  The level of expressed mRNA in the presence of chemical substance/absence: YIL127C: 0.4
Gene YIL154C
  level of expressed mRNA in the presence of chemical substance/in its absence: 1.7
Gene YIL165C
  The level of expressed mRNA in the presence of chemical substance/absence: YIL165C: 1.5
Gene YIL167W
  level of expressed mRNA in the presence of chemical substance/in its absence: 1.2
Gene YIR035C
  level of expressed mRNA in the presence of chemical substance/in its absence: 1.1
Gene YJL017W
  The level of expressed mRNA in the presence of chemical substance/absence: YJL017W: 1.5
Gene YJL032W
  The level of expressed mRNA in the presence of chemical substance/absence: YJL032W: 1.4
Gene YJL037W
  The level of expressed mRNA in the presence of chemical substance/absence: YJL037W: 1.1
Gene YJL049W
  The level of expressed mRNA in the presence of chemical substance/absence: YJL049W: 0.9
Gene YJL088W
  level of expressed mRNA in the presence of chemical substance/in its absence: 1.0
Gene YJL097W
  The level of expressed mRNA in the presence of chemical substance/absence: YJL097W: 0.7
Gene YJL132W
  level of expressed mRNA in the presence of chemical substance/in its absence: 1.3
Gene YJL196C
  level of expressed mRNA in the presence of chemical substance/in its absence: 0.6
Gene YJR030C
  The level of expressed mRNA in the presence of chemical substance/absence: YJR030C: 0.7
Gene YJR044C
  The level of expressed mRNA in the presence of chemical substance/absence: YJR044C: 2.0
Gene YJR142W
  level of expressed mRNA in the presence of chemical substance/in its absence: 1.6
Gene YJR148W
  level of expressed mRNA in the presence of chemical substance/in its absence: 1.1
Gene YJR159W
  level of expressed mRNA in the presence of chemical substance/in its absence: 2.1
Gene YKL051W
  The level of expressed mRNA in the presence of chemical substance/absence: YKL051W: 1.2
Gene YKL059C
  The level of expressed mRNA in the presence of chemical substance/absence: YKL059C: 1.3
Gene YKL067W
  level of expressed mRNA in the presence of chemical substance/in its absence: 1.7
Gene YKL090W
  The level of expressed mRNA in the presence of chemical substance/absence: YKL090W: 0.8
Gene YKL094W
  The level of expressed mRNA in the presence of chemical substance/absence: YKL094W: 1.7
Gene YKL097C
  The level of expressed mRNA in the presence of chemical substance/absence: YKL097C: 0.9
Gene YKL100C
  The level of expressed mRNA in the presence of chemical substance/absence: YKL100C: 1.3
Gene YKR039W
  level of expressed mRNA in the presence of chemical substance/in its absence: 1.3
Gene YKR040C
  The level of expressed mRNA in the presence of chemical substance/absence: YKR040C: 0.6
Gene YLR097C
  The level of expressed mRNA in the presence of chemical substance/absence: YLR097C: 1.1
Gene YLR142W
  level of expressed mRNA in the presence of chemical substance/in its absence: 1.2
Gene YLR180W
  level of expressed mRNA in the presence of chemical substance/in its absence: 0.6
Gene YLR226W
  The level of expressed mRNA in the presence of chemical substance/absence: YLR226W: 0.7
Gene YLR273C
  level of expressed mRNA in the presence of chemical substance/in its absence: 1.7
Gene YLR300W
  level of expressed mRNA in the presence of chemical substance/in its absence: 0.2
Gene YLR307W
  level of expressed mRNA in the presence of chemical substance/in its absence: 1.0
Gene YLR338W
  The level of expressed mRNA in the presence of chemical substance/absence: YLR338W: 1.2
Gene YLR339C
  The level of expressed mRNA in the presence of chemical substance/absence: YLR339C: 0.1
Gene YLR392C
  The level of expressed mRNA in the presence of chemical substance/absence: YLR392C: 1.4
Gene YLR415C
  The level of expressed mRNA in the presence of chemical substance/absence: YLR415C: 1.0
Gene YLR427W
  The level of expressed mRNA in the presence of chemical substance/absence: YLR427W: 2.5
Gene YML013W
  The level of expressed mRNA in the presence of chemical substance/absence: YML013W: 1.2
